According to patent publication US10219516B2, “Molecules having pesticidal utility, and intermediates, compositions, and processes, related thereto” (priority 2015, dated 2019):
Read-outs that look alike come from different tables or passages of the source.

Columns and labels:
Assay type in all cases: in vivo
[1] = tested on: Beet Armyworm (Spodoptera exigua, LAPHEG); assay: Bioassay on Beet Armyworm (BAW), 128-well diet tray assay
In short: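 Percent mortality, averaged across eight replicate wells, was scored after five to seven days at 25° C. under a 14:10 light-dark cycle. Each well's diet carried 50 μg/cm^2 of the dried test molecule and held one to five second instar larvae.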

[2] = tested on: Cabbage Looper (Trichoplusia ni, TRIPNI); assay: Bioassay on Cabbage Looper (CL), 128-well diet tray assay; conditions: Trichoplusia ni
In short: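 Percent mortality, averaged across eight replicate wells, was scored after five to seven days at 25° C. under a 14:10 light-dark cycle. Each well held one to five second instar larvae on artificial diet treated at 50 μg/cm^2 with compound from 90:10 acetone-water, allowed to dry before infestation.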

[3] = tested on: Yellow Fever Mosquito (Aedes aegypti, AEDSAE); assay: Bioassay on Yellow Fever Mosquito (YFM), 96-well plate larval assay; conditions: for YFM rating: Yellow Fever Mosquito, 96-well plate larval assay; for YFM (Biological Results, rating): Species YFM (Yellow Fever Mosquito)
In short: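 Compound stocks at 4000 ppm in DMSO were diluted with 90:10 water/acetone, and 15 μL aliquots were dispensed into six replicate plates. About 1-day-old larvae in liver-powder water were added per well. Plates were covered and held at room temperature for 3 days before each well was scored for mortality.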

[4] = Beet Armyworm, 128-well diet tray assay, read-out: BAW rating
[5] = Cabbage Looper, 128-well diet tray assay, read-out: CL rating
[6] = Species BAW (Beet Armyworm), read-out: BAW (Biological Results, rating)
[7] = Species CL (Cabbage Looper), read-out: CL (Biological Results, rating)

| SMILES | pest or weed control at 50 µg/cm2 [1, 4] [%] | pest or weed control at 50 µg/cm2 [2, 5] [%] | YFM rating [3] | pest or weed control at 50 µg/cm2 [1, 6] [%] | pest or weed control at 50 µg/cm2 [2, 7] [%] | YFM (Biological Results, rating) [3] |
| --- | --- | --- | --- | --- | --- | --- |
| COc1cc(NC(=O)c2cc(NC(=O)[C@H]3[C@H](c4cc(Cl)cc(Cl)c4)C3(Cl)Cl)ccc2Cl)ccn1 (relative stereo) [F544, 2-Chloro-5-(trans-2,2-dichloro-3-(3,5-dichlorophenyl)cyclopropane-1-carboxamido)-N-(2-methoxypyridin-4-yl)benzamide] | 50 to 100 | 50 to 100 | A (80-100) |  |  |  |
| Cc1cc(Cl)cc([C@H]2[C@H](C(=O)Nc3ccc(Cl)c(C(=O)Nc4c(F)cccc4F)c3)C2(Cl)Cl)c1 (relative stereo) [F118, trans-2-Chloro-5-(2,2-dichloro-3-(3-chloro-5-methylphenyl)cyclopropane-1-carboxamido)-N-(2,6-difluorophenyl)benzamide] |  |  |  | 50 to 100 | 50 to 100 | A (80-100) |
| O=C(Nc1cc(F)cc([N+](=O)[O-])c1)c1cc(NC(=O)[C@H]2[C@H](c3cc(Cl)c(Cl)c(Cl)c3)C2(Cl)Cl)ccc1Cl [F417, 2-Chloro-5-((1R,3R)-2,2-dichloro-3-(3,4,5-trichlorophenyl)cyclopropane-1-carboxamido)-N-(3-fluoro-5-nitrophenyl)benzamide] | 50 to 100 | 50 to 100 | A (80-100) |  |  |  |
| Nc1c(F)cc(F)cc1NC(=O)c1cc(NC(=O)[C@H]2[C@H](c3cc(Cl)c(Cl)c(Cl)c3)C2(Cl)Cl)ccc1Cl [F404, N-(2-Amino-3,5-difluorophenyl)-2-chloro-5-((1R,3R)-2,2-dichloro-3-(3,4,5-trichlorophenyl)cyclopropane-1-carboxamido)benzamide] | 50 to 100 | 50 to 100 | A (80-100) |  |  |  |
| Nc1c(F)cc(NC(=O)c2cc(NC(=O)[C@H]3[C@H](c4ccc(F)c(Cl)c4)C3(Cl)Cl)ccc2Cl)cc1F [F381, N-(4-Amino-3,5-difluorophenyl)-2-chloro-5-((1R,3R)-2,2-dichloro-3-(3-chloro-4-fluorophenyl)cyclopropane-1-carboxamido)benzamide] | 50 to 100 | 50 to 100 | A (80-100) |  |  |  |
| CN(C(=O)c1cc(NC(=O)[C@H]2[C@H](c3ccc(C(F)F)c(F)c3)C2(Cl)Cl)ccc1Cl)c1ccc(F)cc1 (relative stereo) [F597, 2-Chloro-5-(trans-2,2-dichloro-3-(4-(difluoromethyl)-3-fluorophenyl)cyclopropane-1-carboxamido)-N-(4-fluorophenyl)-N-methylbenzamide] | 50 to 100 | 50 to 100 | A (80-100) |  |  |  |
| O=C(Nc1cncc([N+](=O)[O-])c1)c1cc(NC(=O)[C@H]2[C@H](c3ccc(Cl)c(Cl)c3)C2(Cl)Cl)ccc1Cl [F359, 2-Chloro-5-((1R,3R)-2,2-dichloro-3-(3,4-dichlorophenyl)cyclopropane-1-carboxamido)-N-(5-nitropyridin-3-yl)benzamide] |  |  |  | 50 to 100 | 50 to 100 | A (80-100) |
| O=C(Nc1c(F)cccc1F)c1cc(NC(=O)[C@H]2[C@H](c3ccc(F)c(Cl)c3)C2(Cl)Cl)ccc1Cl (relative stereo) [F161, trans-2-Chloro-5-(2,2-dichloro-3-(3-chloro-4-fluorophenyl)cyclopropane-1-carboxamido)-N-(2,6-difluorophenyl)benzamide] |  |  |  | 50 to 100 | 50 to 100 | A (80-100) |
| N#Cc1cc(C(F)(F)F)ccc1NC(=O)c1cc(NC(=O)[C@H]2[C@H](c3cc(Cl)cc(Cl)c3)C2(Cl)Cl)ccc1Cl (relative stereo) [F232, 2-Chloro-N-(2-cyano-4-(trifluoromethyl)phenyl)-5-(trans-2,2-dichloro-3-(3,5-dichlorophenyl)cyclopropane-1-carboxamido)benzamide] |  |  |  | 50 to 100 | 50 to 100 | A (80-100) |
| O=C(Nc1ccc(F)cc1)c1cc(NC(=O)[C@H]2[C@H](c3ccc([N+](=O)[O-])cc3)C2(Cl)Cl)ccc1Cl (relative stereo) [F422, 2-chloro-5-(trans-2,2-dichloro-3-(4-nitrophenyl)cyclopropane-1-carboxamido)-N-(4-fluorophenyl)benzamide] | 50 to 100 | 50 to 100 | A (80-100) |  |  |  |
| O=C(Nc1c(F)cccc1F)c1cc(NC(=O)[C@H]2[C@H](c3cc(Cl)cc(Br)c3)C2(Cl)Cl)ccc1Cl (relative stereo) [F164, trans-5-(3-(3-Bromo-5-chlorophenyl)-2,2-dichlorocyclopropane-1-carboxamido)-2-chloro-N-(2,6-difluorophenyl)benzamide] |  |  |  | 50 to 100 | 50 to 100 | A (80-100) |
| O=C(Nc1ccc(F)cc1F)c1cc(NC(=O)[C@H]2[C@H](c3cc(Cl)cc(Cl)c3)C2(Cl)Cl)ccc1Cl [F185, 2-Chloro-5-((1R,3R)-2,2-dichloro-3-(3,5-dichlorophenyl)cyclopropane-1-carboxamido)-N-(2,4-difluorophenyl)benzamide] |  |  |  | 50 to 100 | 50 to 100 | B (More than 0-Less than 80) |
| C=Cc1ccc([C@H]2[C@H](C(=O)Nc3ccc(Cl)c(C(=O)Nc4ccc(F)cc4F)c3)C2(Cl)Cl)cc1F (relative stereo) [F389, 2-Chloro-5-(trans-2,2-dichloro-3-(3-fluoro-4-vinylphenyl)cyclopropane-1-carboxamido)-N-(2,4-difluorophenyl)benzamide] | 50 to 100 | 50 to 100 | A (80-100) |  |  |  |
| CN(C(=O)c1cc(NC(=O)[C@H]2[C@H](c3cc(Cl)cc(Cl)c3)C2(Cl)Cl)ccc1Cl)c1ccc(F)cc1C#N (relative stereo) [F243, trans-2-Chloro-N-(2-cyano-4-fluorophenyl)-5-(2,2-dichloro-3-(3,5-dichlorophenyl)cyclopropane-1-carboxamido)-N-methylbenzamide] |  |  |  | 50 to 100 | 50 to 100 | A (80-100) |
| Cc1cc(N)ccc1NC(=O)c1cc(NC(=O)[C@H]2[C@H](c3cc(Cl)cc(Br)c3)C2(Cl)Cl)ccc1Cl (relative stereo) [F337, N-(4-Amino-2-methylphenyl)-5-(trans-3-(3-bromo-5-chlorophenyl)-2,2-dichlorocyclopropane-1-carboxamido)-2-chlorobenzamide] |  |  |  | 50 to 100 | 50 to 100 | A (80-100) |
| O=C(Nc1cccc(I)c1)c1cc(NC(=O)[C@H]2[C@H](c3cc(Cl)cc(Cl)c3)C2(Cl)Cl)ccc1Cl (relative stereo) [F194, trans-2-Chloro-5-(2,2-dichloro-3-(3,5-dichlorophenyl)cyclopropane-1-carboxamido)-N-(3-iodophenyl)benzamide] |  |  |  | 50 to 100 | 50 to 100 | B (More than 0-Less than 80) |
| O=C(Nc1ccc(F)cc1F)c1cc(NC(=O)[C@H]2[C@H](c3cc(Cl)cc(Cl)c3)C2(Cl)Cl)cc(Cl)c1Cl (relative stereo) [F247, trans-2,3-Dichloro-5-(2,2-dichloro-3-(3,5-dichlorophenyl)cyclopropane-1-carboxamido)-N-(2,4-difluorophenyl)benzamide] |  |  |  | 50 to 100 | 50 to 100 | A (80-100) |
| N#Cc1ccc(Br)cc1NC(=O)c1cc(NC(=O)[C@H]2[C@H](c3cc(Cl)cc(Cl)c3)C2(Cl)Cl)ccc1Cl (relative stereo) [F303, N-(5-Bromo-2-cyanophenyl)-2-chloro-5-(trans-2,2-dichloro-3-(3,5-dichlorophenyl)cyclopropane-1-carboxamido)benzamide] |  |  |  | 50 to 100 | 50 to 100 | A (80-100) |
| O=C(Nc1nnc(Br)s1)c1cc(NC(=O)C2C(c3cc(Cl)cc(Cl)c3)C2(Cl)Cl)ccc1Cl (stereo not drawn) [PF133, trans-N-(5-bromo-1,3,4-thiadiazol-2-yl-2-chloro-5-(2,2-dichloro-3-(3,5-dichlorophenyl)cyclopropane-1-carboxamido)benzamide] | 50 to 100 | 50 to 100 | A (80-100) |  |  |  |
| O=C(Nc1ncc(F)cc1F)c1cc(NC(=O)[C@H]2[C@H](c3cc(Cl)cc(Cl)c3)C2(Cl)Cl)ccc1Cl (relative stereo) [F241, trans-2-Chloro-5-(2,2-dichloro-3-(3,5-dichlorophenyl)cyclopropane-1-carboxamido)-N-(3,5-difluoropyridin-2-yl)benzamide] |  |  |  | 50 to 100 | 50 to 100 | A (80-100) |
| Nc1c(F)cnc(NC(=O)c2cc(NC(=O)[C@H]3[C@H](c4cc(Cl)cc(Cl)c4)C3(Cl)Cl)ccc2Cl)c1F (relative stereo) [F345, trans-N-(4-Amino-3,5-difluoropyridin-2-yl)-2-chloro-5-(2,2-dichloro-3-(3,5-dichlorophenyl)cyclopropane-1-carboxamido)benzamide] |  |  |  | 50 to 100 | 50 to 100 | A (80-100) |
